Results published in patent publication US20230117034A1, “PYRAZOLOTRIAZINES” (Bayer Aktiengesellschaft, priority 2019, published 2023).
Read-outs that look alike come from different tables or passages of the source.

Tests used:
[1] = test system: BRCA1 mRNA expression in MDA-MB-231 cells; assay: qRT-PCR assay: BRCA1 mRNA expression in MDA-MB-231; type: cell-based, human; conditions: median, read-out: RTqPCR-MDA-MB-231, IC50, BRCA1 (median)
Method in brief: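 Seed 200,000 cells/well; 24 h later add compound, continuous exposure 24 h; extract RNA, 600 ng to cDNA; RT-qPCR, normalised to GAPDH.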

[2] = test system: CAL-120, human breast adenocarcinoma cells; assay: Proliferation assay CAL-120 (crystal violet, 4 days); type: cell-based; conditions: CAL-120 cells, median, read-out: Prolif-CAL-120, IC50-[mol/l] (median)
Method in brief: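 IC50 from a 4-parameter fit of crystal violet absorbance (595 nm), scaled between a day-0 plate (0%) and untreated wells (100%). Cells grown in 10% FCS medium were exposed to test substances at 0.01-10 µmol/L for 4 days, 0.1% DMSO final.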

[3] = molecular target: T1, CDK12 (nuclear staining in CAL-120 cells) (Homo sapiens, UniProt Q9NYV4); assay: CDK12 nuclear protein level: immunofluorescence/high content analysis (CAL-120); type: cell-based; conditions: for DC50: CAL-120 cells, 24 h, immunofluorescence, 50% reduction of nuclear CDK12 staining intensity, median, read-out: CDK12 degradation IF, DC50- [mol/l] (median); for (IC50 CDK12 high ATP) to (Degradation DC50 CDK12) ratio: ratio of IC50 CDK12 high ATP kinase assay to DC50 CDK12 degradation (IF, CAL-120)
T1 construct: endogenous in cells; host or cells: CAL-120 human breast cancer cells (DSMZ ACC 459)
Method in brief: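 DC50 is the degrader concentration that halves nuclear CDK12 immunofluorescence relative to controls, measured by high-content imaging. CAL-120 cells were exposed to compound for 24 h at 37 °C before PFA fixation, and signal was normalized to DMSO and control wells.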

[4] = Homo sapiens, MDA-MB-231, Inhibition of BRCA1 mRNA expression in MDA-MB-231 cells
[5] = Inhibition of BRCA1 mRNA expression in MDA-MB-231 cells

T1 sequence (Q9NYV4 whole entry): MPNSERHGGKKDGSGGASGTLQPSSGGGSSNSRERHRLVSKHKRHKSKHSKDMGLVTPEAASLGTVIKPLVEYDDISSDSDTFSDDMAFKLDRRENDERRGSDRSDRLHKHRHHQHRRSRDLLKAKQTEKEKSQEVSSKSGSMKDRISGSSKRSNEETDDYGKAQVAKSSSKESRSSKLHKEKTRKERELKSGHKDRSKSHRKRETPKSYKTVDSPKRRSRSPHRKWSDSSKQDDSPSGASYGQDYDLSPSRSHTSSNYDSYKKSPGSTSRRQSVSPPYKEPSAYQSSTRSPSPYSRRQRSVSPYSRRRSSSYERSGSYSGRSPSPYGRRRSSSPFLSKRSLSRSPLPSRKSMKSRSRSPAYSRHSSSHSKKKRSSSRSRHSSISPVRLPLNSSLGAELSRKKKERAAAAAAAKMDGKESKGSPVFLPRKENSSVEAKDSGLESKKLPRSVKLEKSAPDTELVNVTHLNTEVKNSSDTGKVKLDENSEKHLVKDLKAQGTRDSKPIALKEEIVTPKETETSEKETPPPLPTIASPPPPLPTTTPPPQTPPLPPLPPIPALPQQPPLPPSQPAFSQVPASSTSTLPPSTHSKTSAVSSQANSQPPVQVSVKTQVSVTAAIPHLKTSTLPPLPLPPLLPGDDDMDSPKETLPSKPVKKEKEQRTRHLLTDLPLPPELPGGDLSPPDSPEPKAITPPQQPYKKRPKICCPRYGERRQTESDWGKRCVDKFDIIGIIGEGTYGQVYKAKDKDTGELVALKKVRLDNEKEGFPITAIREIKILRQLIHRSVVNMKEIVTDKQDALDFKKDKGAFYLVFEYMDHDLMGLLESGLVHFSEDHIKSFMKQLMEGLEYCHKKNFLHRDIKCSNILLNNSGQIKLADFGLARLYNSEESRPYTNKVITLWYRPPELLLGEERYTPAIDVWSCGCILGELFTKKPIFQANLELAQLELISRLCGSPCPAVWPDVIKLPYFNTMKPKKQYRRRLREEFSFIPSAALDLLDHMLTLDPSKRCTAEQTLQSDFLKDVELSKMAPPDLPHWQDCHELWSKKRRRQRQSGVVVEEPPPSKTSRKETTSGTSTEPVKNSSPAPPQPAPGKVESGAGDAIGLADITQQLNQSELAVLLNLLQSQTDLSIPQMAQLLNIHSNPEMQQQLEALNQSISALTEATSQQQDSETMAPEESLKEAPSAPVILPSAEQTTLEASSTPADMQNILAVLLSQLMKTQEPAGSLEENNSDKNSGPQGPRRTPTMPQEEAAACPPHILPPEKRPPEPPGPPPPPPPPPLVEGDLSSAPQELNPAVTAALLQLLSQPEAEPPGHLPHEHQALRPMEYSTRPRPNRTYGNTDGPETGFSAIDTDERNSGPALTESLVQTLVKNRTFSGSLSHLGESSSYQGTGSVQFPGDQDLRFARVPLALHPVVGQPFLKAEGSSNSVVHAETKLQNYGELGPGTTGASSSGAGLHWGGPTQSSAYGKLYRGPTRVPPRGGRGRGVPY
T1 sequence (O75909 whole entry partner): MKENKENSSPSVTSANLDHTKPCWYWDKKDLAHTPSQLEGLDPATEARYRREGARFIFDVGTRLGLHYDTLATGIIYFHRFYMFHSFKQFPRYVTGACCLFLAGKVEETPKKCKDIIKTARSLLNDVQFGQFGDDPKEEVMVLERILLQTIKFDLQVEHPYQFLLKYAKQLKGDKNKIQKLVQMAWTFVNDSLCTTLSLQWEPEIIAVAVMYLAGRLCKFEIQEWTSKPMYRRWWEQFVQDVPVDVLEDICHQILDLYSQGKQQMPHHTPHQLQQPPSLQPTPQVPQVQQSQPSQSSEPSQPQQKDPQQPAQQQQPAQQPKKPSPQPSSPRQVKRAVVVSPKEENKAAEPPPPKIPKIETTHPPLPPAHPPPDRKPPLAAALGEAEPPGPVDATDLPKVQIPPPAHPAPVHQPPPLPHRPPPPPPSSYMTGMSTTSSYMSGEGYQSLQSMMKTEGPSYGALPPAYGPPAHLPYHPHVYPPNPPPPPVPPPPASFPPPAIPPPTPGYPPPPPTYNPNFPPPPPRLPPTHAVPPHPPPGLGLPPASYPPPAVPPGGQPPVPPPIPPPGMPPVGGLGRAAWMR

SMILES	IC50 [1, 4]	IC50 ([2]; Homo sapiens, CAL-120, 96 h)	DC50 [3]	(IC50 CDK12 high ATP) to (Degradation DC50 CDK12) ratio [3]	IC50 [1, 5]	IC50 [2]
Fc1cc(F)cc(-c2nnc(CNc3nc(N4CCOCC4)nc4c(C(F)(F)F)cnn34)[nH]2)c1 [Example 386, N-{[5-(3,5-difluorophenyl)-4H-1,2,4-triazol-3-yl]methyl}-2-(morpholin-4-yl)-8-(trifluoromethyl)pyrazolo[1,5-a][1,3,5]triazin-4-amine]	9.16 nM	12.5 nM	9.83 nM	12	–	–
CN1CCN(c2nc(NCc3nc4c(F)c(F)ccc4[nH]3)n3ncc(Cl)c3n2)CC1 [Example 358, 8-chloro-N-[(4,5-difluoro-1H-benzimidazol-2-yl)methyl]-2-(4-methylpiperazin-1-yl)pyrazolo[1,5-a][1,3,5]triazin-4-amine]	3.87 nM	4.05 nM	5.33 nM	2182	–	–
FC(F)(F)c1ccc2[nH]c(CNc3nc(N4CCOCC4)nc4c(Br)cnn34)nc2c1 [Example 339, 8-bromo-2-(morpholin-4-yl)-N-{[5-(trifluoromethyl)-1H-benzimidazol-2-yl]methyl}pyrazolo[1,5-a][1,3,5]triazin-4-amine]	7.85 nM	4.79 nM	7.59 nM	204	–	–
Clc1cc2nc(CNc3nc(N4CC5CCC(C4)N5)nc4c(C5CC5)cnn34)[nH]c2cc1Cl [Example 324, 8-cyclopropyl-2-(3,8-diazabicyclo[3.2.1]octan-3-yl)-N-[(5,6-dichloro-1H-benzimidazol-2-yl)methyl]pyrazolo[1,5-a][1,3,5]triazin-4-amine]	8.86 nM	1.17 nM	18 nM	48	–	–
Fc1cc2nc(CNc3nc(N4C[C@H]5CC[C@@H](C4)N5)nc4c(C5CC5)cnn34)[nH]c2cc1Cl [Example 328, N-[(6-chloro-5-fluoro-1H-benzimidazol-2-yl)methyl]-8-cyclopropyl-2-[(1R,5S)-3,8-diazabicyclo[3.2.1]octan-3-yl]pyrazolo[1,5-a][1,3,5]triazin-4-amine]	2.78 nM	0.901 nM	3.95 nM	419	–	–
Brc1cnn2c(NCc3nc4ccccc4[nH]3)nc(N3CCN4CCC3C4)nc12 (centres unmarked) [Example 350, N-[(1H-benzimidazol-2-yl)methyl]-8-bromo-2-(1,4-diazabicyclo[3.2.1]octan-4-yl)pyrazolo[1,5-a][1,3,5]triazin-4-amine]	13.7 nM	4.35 nM	6.55 nM	1190	–	–
FC(F)(F)c1cnn2c(NCc3nc4cc(Cl)c(Cl)cc4[nH]3)nc(N3CCOCC3)nc12 [Example 332, N-[(5,6-dichloro-1H-benzimidazol-2-yl)methyl]-2-(morpholin-4-yl)-8-(trifluoromethyl)pyrazolo[1,5-a][1,3,5]triazin-4-amine]	3.78 nM	10.9 nM	10.7 nM	18	–	–
CN1CCN(c2nc(NCc3nc4c(F)cccc4[nH]3)n3ncc(Cl)c3n2)CC1.O=CO [Example 362, formic acid 8-chloro-N-[(4-fluoro-1H-benzimidazol-2-yl)methyl]-2-(4-methylpiperazin-1-yl)pyrazolo[1,5-a][1,3,5]triazin-4-amine]	26.4 nM	8.15 nM	7.85 nM	1673	–	–
Brc1cnn2c(NCc3nc4ccccc4[nH]3)nc(N3C[C@H]4CC[C@@H]3CO4)nc12 (single isomer, unassigned; enantiomer 2) [Example 391, N-[(1H-benzimidazol-2-yl)methyl]-8-bromo-2-{[1R or S-(1R*,4R*)]-2-oxa-5-azabicyclo[2.2.2]octan-5-yl}pyrazolo[1,5-a][1,3,5]triazin-4-amine (Enantiomer 2)]	–	–	6.98 nM	960	3.77 nM	8.31 nM
FC(F)(F)Oc1ccc2[nH]c(CNc3nc(N4C[C@H]5CC[C@@H](C4)N5)nc4c(Br)cnn34)nc2c1 [Example 382, 8-bromo-2-[(1R,5S)-3,8-diazabicyclo[3.2.1]octan-3-yl]-N-{[5-(trifluoromethoxy)-1H-benzimidazol-2-yl]methyl}pyrazolo[1,5-a][1,3,5]triazin-4-amine]	28.8 nM	12.4 nM	79.7 nM	10	–	–
Brc1cnn2c(NCc3nc4ccccc4[nH]3)nc(N3C[C@H]4CC[C@@H]3CN4)nc12 (single isomer, unassigned) [Example 335, N-[(1H-benzimidazol-2-yl)methyl]-8-bromo-2-{[1R or S-(1R*,4R*)]-2,5-diazabicyclo[2.2.2]octan-2-yl}pyrazolo[1,5-a][1,3,5]triazin-4-amine]	–	–	8.34 nM	798	12.7 nM	4.24 nM
CN(CC(C)(C)O)c1nc(NCc2nc3c(F)c(Cl)ccc3[nH]2)n2ncc(C3CC3)c2n1 [Example 387, 1-[(4-{[(5-chloro-4-fluoro-1H-benzimidazol-2-yl)methyl]amino}-8-cyclopropylpyrazolo[1,5-a][1,3,5]triazin-2-yl)(methyl)amino]-2-methylpropan-2-ol]	5.56 nM	4.95 nM	3.83 nM	61	–	–
Fc1cccc2[nH]c(CNc3nc(N4CC5CCC(C4)N5)nc4c(Cl)cnn34)nc12 [Example 363, 8-chloro-2-(3,8-diazabicyclo[3.2.1]octan-3-yl)-N-[(4-fluoro-1H-benzimidazol-2-yl)methyl]pyrazolo[1,5-a][1,3,5]triazin-4-amine]	22.5 nM	7.26 nM	11.9 nM	279	–	–
CN(CC(C)(C)O)c1nc(NCc2nc3c(F)c(F)ccc3[nH]2)n2ncc(Cl)c2n1 [Example 359, 1-[(8-chloro-4-{[(4,5-difluoro-1H-benzimidazol-2-yl)methyl]amino}pyrazolo[1,5-a][1,3,5]triazin-2-yl)(methyl)amino]-2-methylpropan-2-ol]	3.28 nM	5.69 nM	4.33 nM	483	–	–
Brc1cnn2c(NCc3nc4ccccc4[nH]3)nc(N3CC4CCC3CO4)nc12 (centres unmarked) [Example 352, N-[(1H-benzimidazol-2-yl)methyl]-8-bromo-2-(2-oxa-5-azabicyclo[2.2.2]octan-5-yl)pyrazolo[1,5-a][1,3,5]triazin-4-amine]	4.93 nM	8.05 nM	5.68 nM	925	–	–
C[C@H]1CN(C)CCN1c1nc(NCc2nc3c(F)cccc3[nH]2)n2ncc(C(F)(F)F)c2n1 [Example 388, 2-[(2S)-2,4-dimethylpiperazin-1-yl]-N-[(4-fluoro-1H-benzimidazol-2-yl)methyl]-8-(trifluoromethyl)pyrazolo[1,5-a][1,3,5]triazin-4-amine]	40 nM	22.5 nM	10.4 nM	655	–	–
Fc1cccc(-c2nnc(CNc3nc(N4CCOCC4)nc4c(C(F)(F)F)cnn34)[nH]2)c1 [Example 385, N-{[5-(3-fluorophenyl)-4H-1,2,4-triazol-3-yl]methyl}-2-(morpholin-4-yl)-8-(trifluoromethyl)pyrazolo[1,5-a][1,3,5]triazin-4-amine]	31.6 nM	25.9 nM	9.13 nM	31	–	–
Clc1cc2nc(CNc3nc(N4CCOCC4)nc4c(Br)cnn34)[nH]c2cc1Cl [Example 329, 8-bromo-N-[(5,6-dichloro-1H-benzimidazol-2-yl)methyl]-2-(morpholin-4-yl)pyrazolo[1,5-a][1,3,5]triazin-4-amine]	9.23 nM	6.11 nM	7.38 nM	73	–	–
FC(F)(F)c1ccc2[nH]c(CNc3nc(N4CCOCC4)nc4c(C5CC5)cnn34)nc2c1 [Example 322, 8-cyclopropyl-2-(morpholin-4-yl)-N-{[5-(trifluoromethyl)-1H-benzimidazol-2-yl]methyl}pyrazolo[1,5-a][1,3,5]triazin-4-amine]	3.56 nM	7.97 nM	4.57 nM	266	–	–
Brc1cnn2c(NCc3nc4ccccc4[nH]3)nc(N3C[C@H]4CC[C@@H]3CO4)nc12 (single isomer, unassigned) [Example 383, N-[(1H-benzimidazol-2-yl)methyl]-8-bromo-2-{[1R or S-(1R*,4R*)]-2-oxa-5-azabicyclo[2.2.2]octan-5-yl}pyrazolo[1,5-a][1,3,5]triazin-4-amine]	4.01 nM	11.4 nM	5.79 nM	859	–	–
